Test results published in patent US9980942B2, “Rejuvenation of precursor cells” (Children's Hospital Medical Center, priority 2012, dated 2018).

Experiments:
aged LT-HSCs [1] = assay: Competitive serial LT-HSC transplantation after ex vivo CASIN treatment; format: in vivo, mouse
Experimental: For competitive LT-HSC transplantation, young (2-4-month-old) and aged (20-26-month-old) C57BL/6 mice (Ly5.2^+) were used as donors. 200 LT-HSCs were sorted into 96 multi-well plates and cultured (either in suspension or adherent to fibronectin) for 16 hrs in HBSS+10% FBS±CASIN (5 μM) in a water jacketed incubator at 37° C., 5% CO2, 3% O2. Stem cells were then mixed with 3×10^5 BM cells from young (2-4-month-old) BoyJ competitor mice (Ly5.1^+) and then transplanted into BoyJ recipient mice (Ly5.1^+).
Peripheral blood (PB) chimerism was determined by FACS analysis every 8 weeks. 24 weeks post primary transplants, 2×10^6 BM cells from an individual primary recipient mouse were injected into an individual secondary pre-conditioned recipient BoyJ mouse. Experiment was performed three times with LT-HSCs cultured in suspension and two times with LTHSCs cultured on a fibronectin-coated substrate without any difference in experimental outcome. Primary transplanted mice were regarded engrafted when PB chimerism was higher or equal to 1.0% and contribution was detected in all lineages. Secondary transplanted mice were regarded as engrafted when PB chimerism was higher or equal to 0.5% and contribution was detected in all lineages.
PB and BM cell immunostaining was performed according to standard procedures and samples were analyzed on a LSRII flow cytometer (BD Biosciences). Lineage FACS analysis data are plotted as the percentage of B220+, CD3+ and Myeloid (Gr-1+, Mac-1+ and Gr-1+Mac-1+) cells among donor-derived Ly5.2^+ cells. As for early hematopoiesis analysis, mononuclear cells were isolated by low-density centrifugation (Histopaque 1083, Sigma) and stained with a cocktail of biotinylated lineage antibodies. After lineage depletion by magnetic separation (Dynalbeads, Invitrogen), cells were stained with anti-Sca-1 (clone D7) (eBioscience), anti-c-kit (clone 2B8) (eBioscience), anti-CD34 (clone RAM34) (eBioscience), anti-CD127 (clone A7R34) (eBioscience), anti-Flk-2 (clone A2F10) (eBioscience) and Streptavidin (eBioscience). Early hematopoiesis FACS analysis data were plotted as percentage of long-term hematopoietic stem cells (LTHSCs, gated as LSK CD34−/lowFlk2−), short-term hematopoietic stem cells (ST-HSCs, gated as LSK CD34+Flk2−) and lymphoid-primed multipotent progenitors (LMPPs, gated as LSK CD34+Flk2+) (Adolfsson et al., 2005) distribution among donor-derived LSKs (Linnegc-kit+sca-1+ cells). LSK and common lymphoid progenitor cells (CLP, gated as Lin−c-Kit−/low Sca-1−/low IL7Rα+) (Karsunky et al., 2008) were plotted as percentage among donor-derived Linneg cells. In order to isolate LT-HSCs, lineage depletion was performed to enrich for lineage negative cells. Lineage negative cells were then stained as aforementioned and sorted using a BD FACS Aria I or a BD FACS Aria III (BD Bioscience).

aged LT-HSCs [2] = assay: Immunofluorescence polarity scoring of Cdc42 and tubulin; format: cell-based, mouse
Experimental: Freshly sorted LT-HSCs were seeded on fibronectin-coated glass coverslips in HBSS+10% FBS. CASIN (referred to in (Peterson et al., 2006) as Pirl1-related compound 2) was obtained from Chembridge Corporation, and purified to greater than 99% by high-performance liquid chromatography. After 16 hours of incubation at 37° C., 5% CO2, 3% O2, cells were fixed with BD Cytofix Fixation Buffer (BD Biosciences).
After fixation cells were gently washed with PBS, permeabilized with 0.2% Tryton X-100 (Sigma) in PBS for 20 minutes and blocked with 10% Donkey Serum (Sigma) for 30 minutes. Primary and secondary antibodies incubations were performed for 1 hr at room temperature. […] The cells were coimmunostained with an anti-alpha tubulin antibody (Abcam, rat monoclonal ab6160) detected with an anti-rat AMCA-conjugated secondary antibody or an anti-rat DyLight 488-conjugated antibody (Jackson ImmunoResearch), an anti-Cdc42 antibody (Millipore, rabbit polyclonal) detected with an anti-rabbit DyLight 549-conjugated antibody (Jackson ImmunoResearch) and an anti-Pericentrin-2 antibody (Santa Cruz Biotechnology, goat polyclonal) detected with an anti-goat MCAconjugated antibody (Jackson ImmunoResearch). […] Images were analyzed with AxioVision 4.6 software. Alternatively, samples were analyzed with an LSM710 confocal microscope (Zeiss) equipped with a 63X objective. […]

Cdc42 = biological target: T1, Cdc42 (Mus musculus, UniProt P60766); assay: Cdc42-GTPase effector domain pull-down / Western blot; format: cell-based; details: CASIN 5 μM, aged lineage depleted bone marrow cells
T1 construct: lineage depleted BM cells (10^6) were lysed in a Mg2+ lysis/wash buffer; endogenous in cells; host or cells: lineage-depleted bone marrow (Lin- BM) cells from aged C57BL/6 mice
T1 sequence (P60766 whole entry, the tested form may be a part): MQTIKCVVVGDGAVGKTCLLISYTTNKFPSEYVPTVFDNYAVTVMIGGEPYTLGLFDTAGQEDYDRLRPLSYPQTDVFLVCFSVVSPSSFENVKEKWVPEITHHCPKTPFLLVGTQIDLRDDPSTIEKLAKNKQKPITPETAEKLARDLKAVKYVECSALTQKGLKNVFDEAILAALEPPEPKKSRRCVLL
Experimental: Relative levels of GTP-bound Cdc42 were determined by an effector pull-down assay. Briefly, lineage depleted BM cells (10^6) were lysed in a Mg2+ lysis/wash buffer (Upstate cell signaling solutions) containing 10% glycerol, 25 mM sodium fluoride, 1 mM sodium orthovanadate and a protease inhibitor cocktail (Roche Diagnostics). Samples were incubated with PAK-1 binding domain/agarose beads and bound (activated) as well as unbound (non-activated) Cdc42 fractions were probed by immunoblotting with an anti-Cdc42 antibody (Millipore, rabbit polyclonal). Activated protein was normalized to total protein and/or β-actin (Sigma) and the relative amount was quantified by densitometry.

aged HSCs = assay: Whole genome expression profiling of HSCs; format: cell-based; details: CASIN treated aged HSCs
Excerpt: Aged HSCs have distinct whole genome expression profiles. To define the effect of Cdc42 inhibition by CASIN on molecular pathways regulating HSCs, cDNA was derived from linearly amplified RNA from CASIN-treated or untreated aged or young HSCs, using tested amplification, array hybridization and bioinformatic analysis services provided by the company Miltenyi. The goal of these experiments was to identify changes in whole genome expression patterns or in functionally defined groups of genes, rather than changes in individual genes. Differences in expression of functional gene groups was confirmed by real-time RT-PCR of selected genes using the standard ABI/Taqman probe system.

OCCNC1CCCc2c1[nH]c1ccc(-c3ccccc3)cc21 (stereo not shown) [CASIN]
contribution to the B-cell compartment in PB (aged LT-HSCs [1]; primary recipients): increase | contribution to the myeloid lineage (aged LT-HSCs [1]; primary recipients): reduced | frequency of donor-derived LT-HSCs among donor-derived LSKs (aged LT-HSCs [1]; primary recipients): significantly reduced | B-cell and myeloid engraftment in PB and BM (aged LT-HSCs [1]; secondary transplant): indistinguishable from young LT-HSCs | contribution to the LT-HSC pool in BM (aged LT-HSCs [1]; secondary transplant): indistinguishable from young LT-HSCs | overall regenerative capacity (chimerism in PB) (aged LT-HSCs [1]; secondary transplant, compared to aged LT-HSCs): increased and stable chimerism in PB | time the increase in percentage of polar cells remained stable after CASIN withdrawal (aged LT-HSCs [2]; aged LT-HSCs in vitro): ≥ 6 h | percentage of polarized cells (Cdc42 and tubulin) (aged LT-HSCs [2]; aged LT-HSCs, 2.5 and 5 μM CASIN): dose-dependent increase | level of active Cdc42 (Cdc42-GTP) (Cdc42): reduced the elevated level of active Cdc42 observed in aged primitive hematopoietic cells to the level observed in young cells | whole genome expression pattern (aged HSCs): largely resemble young HSCs
